Read-outs that look alike come from different tables or passages of the source.
Key:
FGFR2 = FGFR2 (Homo sapiens (Human), UniProt P21802); test: In vitro biochemical kinase assay (Caliper Assay), FGFR2; settings: enzyme 2.5 nM, ATP 1 μM, 40 minutes; read-out: Enzymatic activity IC50(nM) FGFR2
Method: (§1) I. In Vitro Biochemical Kinase Assay of FGFR 1˜3
(§2) Caliper Assay was used in the present invention to determine the inhibitory activities of the compounds against FGFR1, FGFR2, and FGFR3. The specific experimental procedure was as follows: • 1. The kinase reaction in the present invention was carried out in 384-well plates, the kinase(Carna) at a certain concentration and ATP at a certain concentration and 1 μM of peptide FAM-P22 (GL Biochem, Cat. No. 112393)) was incubated to react for a certain time at 28° C. in a reaction system consisting of 50 mM HEPES, […], 0.0015% Brij-35 and basic kinase buffer; for FGFR1, the enzyme concentration was 0.25 nM and ATP concentration was 382 μM and the reaction time was 20 minutes; for FGFR2, the enzyme concentration was 2.5 nM, ATP concentration was 1 μM, and the reaction time was 40 minutes; for FGFR3, the enzyme concentration was 8 nM, ATP concentration was 4.7 μM, and the reaction time was 30 minutes: • 2. The reaction was terminated with a stop solution (100 mM HEPES, pH 7.5, 0.2% Caliper coating, reagent, 50 mM EDTA and 0.015% Brij35); • 3. The plate with the terminated kinase reaction was transferred to the Caliper workstation to read the data; • 4. the phosphorylated and unphosphorylated peptides were separated by the Caliper microfluid migration shift technique, and the analyte was transferred by a constant buffer flow through the chip, the migration of the substrate peptide was monitored by the labeled fluorescent signal, and the kinase activity was calculated by the amount of the phosphate-based peptide formed. • 5. IC50 was determined by non-linear regression analysis of percent inhibition at different concentration level of the compound.

FGFR1 = FGFR1 (Homo sapiens (Human), UniProt P11362); test: In vitro biochemical kinase assay (Caliper Assay), FGFR1; settings: enzyme 0.25 nM, ATP 382 μM, 20 minutes; read-out: Enzymatic activity IC50(nM) FGFR1
Method: as §1, §2

[1] = system: Snu-16 gastric cancer cells (FGFR2 gene amplification); test: Cell proliferation assay (Cell Titer Glo), Snu-16; assay type: cell-based; settings: Snu-16 cells, 3 days, CTG, read-out: Cellular IC50 (nM) Sun16
Method: (§3) II. Cell Proliferation Assay (Cell Titer Glo(CTG) Assay)
(§4) The FGFR signal pathway dependent inhibitory effect of the compound in the present invention on cell proliferation was assessed by survival test using CTG reagent (Promega, 4G7573). Cell lines representative of a variety of tumor types, including H1581 lung cancer cells (FGFR1 gene amplification), Snu-16 gastric cancer cells (FGFR2 gene amplification), and RT112 bladder carcinoma cells (FGFR3-TACC3 fusion) from Nanjing Cobioer Biosciences, were selected for the assay. The specific experimental procedure was as follows: • 1. 90 μL of cells were seeded into a 96-well plate processed with TCM (Costar 43904), and incubated overnight at 37° C. in a 5% CO2 incubator; afterwards, 10 μL of the culture medium containing the compound at 10 fold of its final concentration was added; • 2. The dose-dependent effect was evaluated by a serial dilution of the test compound, starting from 10 μM or a lower concentration. • 3. The cells were incubated at 37° C. under 5% C02 for 3 days, then added 50 μL CTG, and read the data with Envision (Pelkin Elmer) to quantify the ATP level in the cells. The ATP levels in cells with treatment of inhibitor at a variety of concentrations were compared with those in cells of the control group (in which DMSO was added into the medium) to evaluate the compound percent inhibition of cell proliferation/survival. • 4. The compound half growth inhibitory concentration (IC50) was determined in Graphpad Prism by 4-parameter curve fitting.

[2] = system: H1581 lung cancer cells (FGFR1 gene amplification); test: Cell proliferation assay (Cell Titer Glo), H1581; assay type: cell-based; settings: 3 days, CTG, read-out: Cellular IC50 (nM) H1581
Method: as §3, §4

[3] = system: RT112 bladder carcinoma cells (FGFR3-TACC3 fusion); test: Cell proliferation assay (Cell Titer Glo), RT112; assay type: cell-based; settings: Homo sapiens, RT-112, 72 h, 3 days, CTG, read-out: Cellular IC50 (nM) RT112
Method: as §3, §4

Sequence of FGFR2 (P21802 22-821): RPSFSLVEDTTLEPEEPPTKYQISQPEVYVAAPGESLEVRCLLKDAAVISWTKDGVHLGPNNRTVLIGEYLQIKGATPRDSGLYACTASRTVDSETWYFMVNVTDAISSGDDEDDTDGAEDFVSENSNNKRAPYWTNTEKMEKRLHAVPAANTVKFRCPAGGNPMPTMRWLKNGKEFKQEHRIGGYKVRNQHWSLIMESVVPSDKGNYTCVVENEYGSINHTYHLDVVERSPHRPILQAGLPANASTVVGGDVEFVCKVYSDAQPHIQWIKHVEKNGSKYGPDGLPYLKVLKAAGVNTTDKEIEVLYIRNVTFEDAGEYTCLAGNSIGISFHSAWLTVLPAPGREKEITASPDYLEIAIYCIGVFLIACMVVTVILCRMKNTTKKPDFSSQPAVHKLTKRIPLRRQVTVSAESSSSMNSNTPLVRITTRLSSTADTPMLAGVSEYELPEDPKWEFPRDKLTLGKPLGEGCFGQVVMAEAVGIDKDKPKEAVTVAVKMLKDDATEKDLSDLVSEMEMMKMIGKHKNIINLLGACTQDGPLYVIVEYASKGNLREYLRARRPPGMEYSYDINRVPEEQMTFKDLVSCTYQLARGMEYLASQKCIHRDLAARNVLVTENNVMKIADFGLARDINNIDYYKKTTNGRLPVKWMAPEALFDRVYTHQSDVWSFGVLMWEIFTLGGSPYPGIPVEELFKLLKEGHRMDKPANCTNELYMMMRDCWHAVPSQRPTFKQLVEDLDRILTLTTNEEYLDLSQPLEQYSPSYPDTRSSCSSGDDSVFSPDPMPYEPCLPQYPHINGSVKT
Sequence of FGFR1 (P11362 22-822): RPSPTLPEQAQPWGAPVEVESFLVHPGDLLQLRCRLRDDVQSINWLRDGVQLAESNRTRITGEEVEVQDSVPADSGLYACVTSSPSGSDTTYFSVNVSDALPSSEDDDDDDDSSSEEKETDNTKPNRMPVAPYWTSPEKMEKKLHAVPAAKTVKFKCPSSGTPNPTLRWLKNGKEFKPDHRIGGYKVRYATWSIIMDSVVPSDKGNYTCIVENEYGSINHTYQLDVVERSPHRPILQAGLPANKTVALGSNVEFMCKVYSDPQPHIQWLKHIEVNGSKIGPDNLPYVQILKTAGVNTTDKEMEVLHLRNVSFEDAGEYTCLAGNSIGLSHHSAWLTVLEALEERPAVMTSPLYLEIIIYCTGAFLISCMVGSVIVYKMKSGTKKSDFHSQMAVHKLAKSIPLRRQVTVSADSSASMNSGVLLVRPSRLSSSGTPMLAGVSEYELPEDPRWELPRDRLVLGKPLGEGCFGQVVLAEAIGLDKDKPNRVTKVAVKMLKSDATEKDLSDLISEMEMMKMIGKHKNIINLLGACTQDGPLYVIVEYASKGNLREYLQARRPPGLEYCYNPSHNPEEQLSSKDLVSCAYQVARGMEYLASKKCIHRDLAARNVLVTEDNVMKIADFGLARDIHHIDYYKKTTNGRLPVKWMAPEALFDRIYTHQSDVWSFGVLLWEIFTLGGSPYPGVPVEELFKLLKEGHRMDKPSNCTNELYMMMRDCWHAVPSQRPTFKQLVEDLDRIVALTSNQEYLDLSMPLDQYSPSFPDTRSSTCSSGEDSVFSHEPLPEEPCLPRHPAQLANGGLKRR

Row | SMILES | IC50 (FGFR2) [nM] | IC50 (FGFR1) [nM] | IC50 ([1]; Homo sapiens, SNU-16, 72 h) [nM] | IC50 ([2]; Homo sapiens, NCI-H1581, 72 h) [nM] | IC50 [3] [nM] | IC50 ([1]; Homo sapiens, SNU-16, 72 h, numeric values) [nM] | IC50 ([3]; numeric values) [nM] | IC50 [1] [nM] | IC50 [2] [nM]
1 | COc1cc(OC)c(Cl)c(-c2cc3cnc(-c4cnn(C)c4)cc3n(CC3CC3)c2=O)c1Cl [Example 4, 1-(cyclopropylmethyl) 3-(2,6-dichloro-3,5-dimethoxyphenyl)-7-(1-methyl-1H-pyrazol-4-yl)-1,6-naphthyridin-2(1H)-one] | ≤ 5 | 10 to 50 | 50 to 500 | 50 to 500 | – | – | – | – | –
2 | COc1cc(OC)c(Cl)c(-c2cc3cnc(-c4cnn(C)c4)cc3n(CCN3CCOCC3)c2=O)c1Cl [Example 5, 3-(2,6-dichloro-3,5-dimethoxyphenyl)-7-(1-methyl-1H-pyrazol-4-yl)-1-(2-morpholinoethyl)-1,6-naphthyridin-2(1H)-one] | 10 to 50 | 50 to 500 | 10 to 50 | 50 to 500 | – | – | – | – | –
3 | COc1cc(OC)c(Cl)c(-c2cc3cnc(-c4cnn(C)c4)cc3n(C3CCOC3)c2=O)c1Cl (stereo not drawn) [Example 7, 3-(2,6-dichloro-3,5-dimethoxyphenyl)-7-(1-methyl-1H-pyrazol-4-yl)-1-(tetrahydrofuran-3-yl)-1,6-naphthyridin-2(1H)-one] | ≤ 5 | ≤ 5 | 5 to 10 | 10 to 50 | – | – | – | – | –
4 | CCn1c(=O)c(-c2c(Cl)c(OC)cc(OC)c2Cl)cc2cnc(-c3cnn(C4CN(S(C)(=O)=O)C4)c3)cc21 [Example 11, 3-(2,6-dichloro-3,5-dimethoxyphenyl)-1-ethyl-7-(1-(1-(methylsulfonyl)azetidin-3-yl)-1H-pyrazol-4-yl)-1,6-naphthyridin-2(1H)-one] | ≤ 5 | 10 to 50 | 10 to 50 | 50 to 500 | – | – | – | – | –
5 | CCn1c(=O)c(-c2cc(OC)cc(OC)c2Cl)cc2cnc(-c3cnn(C)c3)cc21 [Example 13, 3-(2-chloro-3,5-dimethoxyphenyl)-1-ethyl-7-(1-methyl-1H-pyrazol-4-yl)-1,6-naphthyridin-2(1H)-one] | 5 to 10 | 50 to 500 | – | – | – | – | – | – | –
6 | COc1cc(OC)c(Cl)c(-c2cc3cnc(-c4ccc(C5(C#N)CCC5)nc4)cc3n(C3CCOC3)c2=O)c1Cl (stereo not drawn) [Example 16, 1-(5-(3-(2,6-dichloro-3,5-dimethoxyphenyl)-2-oxo-1-(tetrahydrofuran-3-yl)-1,2-dihydro-1,6-naphthyridin-7-yl)pyridin-2-yl)cyclobutane-1-carbonitrile] | 10 to 50 | 50 to 500 | 10 to 50 | 50 to 500 | 50 to 500 | – | – | – | –
7 | COc1cc(OC)c(Cl)c(-c2cc3cnc(-c4cnn(CCN5CCOCC5)c4)cc3n(C3CCOC3)c2=O)c1Cl (stereo not drawn) [Example 18, 3-(2,6-dichloro-3,5-dimethoxyphenyl)-7-(1-(2-morpholinoethyl)-1H-pyrazol-4-yl)-1-(tetrahydrofuran-3-yl)-1,6-naphthyridin-2(1H)-one] | – | – | – | 50 to 500 | – | 6 | 4.1 | – | –
8 | COc1cc(OC)c(Cl)c(-c2cc3cnc(-c4cnn(C)c4)cc3n([C@H]3CCOC3)c2=O)c1Cl [Example 22, (S)-3-(2,6-dichloro-3,5-dimethoxyphenyl)-7-(1-methyl-1H-pyrazol-4-yl)-1-(tetrahydrofuran-3-yl)-1,6-naphthyridin-2(1H)-one] | ≤ 5 | ≤ 5 | – | – | – | – | – | ≤ 5 | 10 to 50
9 | CCn1c(=O)c(-c2c(F)c(OC)cc(OC)c2F)cc2cnc(-c3cnn(C)c3)cc21 [Example 25, 3-(2,6-difluoro-3,5-dimethoxyphenyl)-1-ethyl-7-(1-methyl-1H-pyrazol-4-yl)-1,6-naphthyridin-2(1H)-one] | ≤ 5 | ≤ 5 | 50 to 500 | 50 to 500 | – | – | – | – | –
10 | COc1cc(OC)c(F)c(-c2cc3cnc(-c4cnn(C)c4)cc3n(C3CCOC3)c2=O)c1F (stereo not drawn) [Example 28, 3-(2,6-difluoro-3,5-dimethoxyphenyl)-7-(1-methyl-1H-pyrazol-4-yl)-1-(tetrahydrofuran-3-yl)-1,6-naphthyridin-2(1H)-one] | ≤ 5 | ≤ 5 | ≤ 5 | 10 to 50 | ≤ 5 | – | – | – | –
11 | CCn1c(=O)c(-c2c(F)c(OC)cc(OC)c2F)cc2cnc(-c3cnn(CCN4CCOCC4)c3)cc21 [Example 29, 3-(2,6-difluoro-3,5-dimethoxyphenyl)-1-ethyl-7-(1-(2-morpholinoethyl)-1H-pyrazol-4-yl)-1,6-naphthyridin-2(1H)-one] | ≤ 5 | 5 to 10 | 10 to 50 | 50 to 500 | – | – | – | – | –
12 | COc1cc(OC)c(F)c(-c2cc3cnc(-c4cnn(CCN5CCOCC5)c4)cc3n(C(C)C)c2=O)c1F [Example 30, 3-(2,6-difluoro-3,5-dimethoxyphenyl)-1-isopropyl-7-(1-(2-morpholinoethyl)-1H-pyrazol-4-yl)-1,6-naphthyridin-2(1H)-one] | ≤ 5 | ≤ 5 | ≤ 5 | 10 to 50 | – | – | – | – | –
13 | COc1cc(OC)c(F)c(-c2cc3cnc(-c4cnn(C)c4)cc3n(C3CCCC3)c2=O)c1F [Example 33, 1-cyclopentyl-3-(2,6-difluoro-3,5-dimethoxyphenyl)-7-(1-methyl-1H-pyrazol-4-yl)-1,6-naphthyridin-2(1H)-one] | ≤ 5 | ≤ 5 | ≤ 5 | 10 to 50 | – | – | – | – | –
14 | COc1cc(OC)c(F)c(-c2cc3cnc(-c4cnn(CCN5CCOCC5)c4)cc3n(C3CCCC3)c2=O)c1F [Example 34, 1-cyclopentyl-3-(2,6-difluoro-3,5-dimethoxyphenyl)-7-(1-(2-morpholinoethyl)-1H-pyrazol-4-yl)-1,6-naphthyridin-2(1H)-one] | – | – | ≤ 5 | 10 to 50 | ≤ 5 | – | – | – | –
15 | COc1cc(OC)c(F)c(-c2cc3cnc(-c4cnn(CCN5CCOCC5)c4)cc3n(C3CCOC3)c2=O)c1F (stereo not drawn) [Example 35, 3-(2,6-difluoro-3,5-dimethoxyphenyl)-7-(1-(2-morpholinoethyl)-1H-pyrazol-4-yl)-1-(tetrahydrofuran-3-yl)-1,6-naphthyridin-2(1H)-one] | – | – | 5 to 10 | 50 to 500 | ≤ 5 | – | – | – | –
16 | COc1cc(OC)c(F)c(-c2cc3cnc(-c4ccc(C(C)(C)C#N)nc4)cc3n(C3CCOC3)c2=O)c1F (stereo not drawn) [Example 40, 2-(5-(3-(2,6-difluoro-3,5-dimethoxyphenyl)-2-oxo-1-(tetrahydrofuran-3-yl)-1,2-dihydro-1,6-naphthyridin-7-yl)pyridin-2-yl)-2-methylpropanenitrile] | ≤ 5 | 5 to 10 | 5 to 10 | 50 to 500 | – | – | – | – | –
17 | CCn1c(=O)c(-c2c(Cl)c(OC)cc(OC)c2Cl)cc2cnc(-c3cn(C4CCN(C)C4)nc3C)cc21 (stereo not drawn) [Example 46, 3-(2,6-dichloro-3,5-dimethoxyphenyl)-1-ethyl-7-(3-methyl-1-(1-methylpyrrolidin-3-yl)-1H-pyrazol-4-yl)-1,6-naphthyridin-2(1H)-one] | ≤ 5 | 10 to 50 | 10 to 50 | 50 to 500 | – | – | – | – | –
18 | COc1cc(OC)c(Cl)c(-c2cc3cnc(-c4cnn(CCN(C)C)c4)cc3n(C3CCOC3)c2=O)c1Cl (stereo not drawn) [Example 48, 3-(2,6-dichloro-3,5-dimethoxyphenyl)-7-(1-(2-(dimethylamino)ethyl)-1H-pyrazol-4-yl)-1-(tetrahydrofuran-3-yl)-1,6-naphthyridin-2(1H)-one] | ≤ 5 | 10 to 50 | 5 to 10 | 50 to 500 | – | – | – | – | –

— patent US12351576B2, “FGFR inhibitor, preparation method therefor and application thereof” (Abbisko Therapeutics Co., Ltd., priority 2018, dated 2025)
